Measurements from US8735388B2, “Heterocyclic compounds with affinity to muscarinic receptors” (Abbvie B. V. A., priority 2007, dated 2014).
Read-outs that look alike come from different tables or passages of the source.

Experiments:
[1] = target: T1, Muscarine M1 (GPCR-A-MA-ACH M1) (Homo sapiens, UniProt P11229); assay: Muscarine M1 cell-based functional assay (CHO cells, Ca2+ - FLIPR Fluorimetry); details: read-out: Cell funct. Musc. M1 Agonism pEC50 (converted)
T1 construct: expressed in transfected cells; host or cells: CHO cells
T1 sequence (P11229 1-460): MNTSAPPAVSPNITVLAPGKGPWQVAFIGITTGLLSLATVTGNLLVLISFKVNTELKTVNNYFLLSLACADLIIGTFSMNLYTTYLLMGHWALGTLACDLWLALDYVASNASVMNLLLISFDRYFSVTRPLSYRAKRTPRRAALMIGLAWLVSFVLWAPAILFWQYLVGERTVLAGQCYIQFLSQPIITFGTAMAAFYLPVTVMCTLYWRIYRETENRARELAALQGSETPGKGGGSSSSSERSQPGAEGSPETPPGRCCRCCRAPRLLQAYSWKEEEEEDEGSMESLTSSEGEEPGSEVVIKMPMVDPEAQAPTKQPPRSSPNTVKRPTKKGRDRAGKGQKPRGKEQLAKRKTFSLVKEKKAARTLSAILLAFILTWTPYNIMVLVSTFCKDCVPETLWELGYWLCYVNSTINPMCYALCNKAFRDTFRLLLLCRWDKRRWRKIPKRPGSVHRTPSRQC

[2] = target: T2, Muscarine M4 (GPCR-A-MA-ACH M4) (Homo sapiens, UniProt P08173); assay: Muscarine M4 cell-based functional assay (CHO cells, Ca2+ - Aequorin luminescence)
T2 construct: expressed in transfected cells; host or cells: CHO cells
T2 sequence (P08173 1-479): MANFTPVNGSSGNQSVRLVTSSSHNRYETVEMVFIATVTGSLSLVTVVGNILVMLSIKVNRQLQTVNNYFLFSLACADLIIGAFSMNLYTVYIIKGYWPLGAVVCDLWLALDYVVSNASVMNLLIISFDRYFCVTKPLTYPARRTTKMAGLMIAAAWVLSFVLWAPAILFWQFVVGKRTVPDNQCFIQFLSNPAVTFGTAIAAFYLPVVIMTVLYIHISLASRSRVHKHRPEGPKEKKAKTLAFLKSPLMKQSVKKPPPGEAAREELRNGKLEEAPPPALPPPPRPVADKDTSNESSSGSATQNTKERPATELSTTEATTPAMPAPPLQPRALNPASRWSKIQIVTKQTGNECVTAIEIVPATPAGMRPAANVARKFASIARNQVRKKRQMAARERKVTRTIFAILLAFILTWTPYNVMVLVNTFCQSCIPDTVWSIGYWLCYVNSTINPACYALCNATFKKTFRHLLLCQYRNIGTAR
Procedure, shortened: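 CHO cells expressing human M4 were exposed to compound, with Ca2+ response read by aequorin luminescence. Compounds were first tested at 1 μM, then at 10-fold lower concentrations if active; stimulation or inhibition was relative to the reference agonist. EC50/IC50 came from Hill-equation fits.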

[3] = target: T2, Muscarine M4 (GPCR-A-MA-ACH M4); assay: Muscarine M4 receptor binding, 3H-Oxotremorine
Procedure, shortened: (§1)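 Human M1 ([3H]-pirenzepine), M3, and M4 ([3H]-4DAMP or [3H]-oxotremorine) receptor preparations incubated with radioligand and compound, first at 10 μM, then at 10-fold lower concentrations if inhibition exceeded 40%. Bound ligand separated by glass-fibre filtration and counted by scintillation. IC50 from Hill fit, converted to Ki via Cheng-Prusoff, reported as pKi.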

[4] = target: T1, Muscarine M1 (GPCR-A-MA-ACH M1); assay: Muscarine M1 receptor binding, 3H-Pirenzepine; details: human M1, CHO cells, ligand 2 nM, 60 min/22° C., read-out: RB Musc. M1 3H-Pirenzepine pKi (converted)
Procedure, shortened: as §1

[5] = target: T2, Muscarine M4 (GPCR-A-MA-ACH M4); assay: Muscarine M4 receptor binding, 3H-4DAMP; details: human M4, CHO cells, ligand 0.2 nM, 60 min/22° C., read-out: RB Musc. M4 3H-DAMP pKi (converted)
Procedure, shortened: as §1

[6] = target: T3, Muscarine M3 (GPCR-A-MA-ACH M3) (Homo sapiens, UniProt P20309); assay: Muscarine M3 receptor binding
T3 construct: expressed in transfected cells; host or cells: CHO cells
T3 sequence (P20309 whole entry): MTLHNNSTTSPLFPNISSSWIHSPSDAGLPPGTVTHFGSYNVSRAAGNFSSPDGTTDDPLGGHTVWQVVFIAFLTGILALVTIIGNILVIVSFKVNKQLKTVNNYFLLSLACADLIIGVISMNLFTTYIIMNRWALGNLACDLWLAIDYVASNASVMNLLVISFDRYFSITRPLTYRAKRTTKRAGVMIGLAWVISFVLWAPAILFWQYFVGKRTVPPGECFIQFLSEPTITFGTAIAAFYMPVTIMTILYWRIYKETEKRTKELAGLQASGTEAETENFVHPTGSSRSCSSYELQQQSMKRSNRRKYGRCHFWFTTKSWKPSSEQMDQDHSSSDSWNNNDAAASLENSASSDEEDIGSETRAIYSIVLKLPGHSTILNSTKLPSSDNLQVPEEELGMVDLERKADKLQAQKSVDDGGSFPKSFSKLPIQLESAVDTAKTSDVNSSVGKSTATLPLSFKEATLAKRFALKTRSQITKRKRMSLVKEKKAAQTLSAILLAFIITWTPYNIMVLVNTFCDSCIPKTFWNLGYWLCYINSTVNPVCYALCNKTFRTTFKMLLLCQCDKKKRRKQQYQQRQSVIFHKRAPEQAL

[7] = target: T4, Muscarine M2 (GPCR-A-MA-ACH M2) (Cavia porcellus, UniProt H0VRN8); assay: Muscarine M2 functional assay, isolated organ (left atrium, electrically paced), agonist and antagonist mode; set-up: species or system Guinea Pig; details: for EC50: read-out: Cell funct. Musc. M2 Agonism pEC50 (converted)
T4 construct: from tissue; host or cells: guinea pig left atrium (electrically paced)
T4 sequence (H0VRN8 1-466): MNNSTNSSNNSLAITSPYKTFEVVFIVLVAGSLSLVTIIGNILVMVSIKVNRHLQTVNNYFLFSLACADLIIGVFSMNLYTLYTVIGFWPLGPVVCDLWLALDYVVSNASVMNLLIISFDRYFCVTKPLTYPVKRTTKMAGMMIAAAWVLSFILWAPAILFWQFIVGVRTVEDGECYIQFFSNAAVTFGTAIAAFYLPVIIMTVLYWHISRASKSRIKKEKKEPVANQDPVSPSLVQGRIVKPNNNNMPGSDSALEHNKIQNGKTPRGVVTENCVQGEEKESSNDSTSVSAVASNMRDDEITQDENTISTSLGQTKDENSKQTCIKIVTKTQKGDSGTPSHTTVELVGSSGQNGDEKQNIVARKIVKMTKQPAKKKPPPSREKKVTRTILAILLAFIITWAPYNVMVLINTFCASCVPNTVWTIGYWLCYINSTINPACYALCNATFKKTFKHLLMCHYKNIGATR

[8] = target: T5, Muscarine M3 (GPCR-A-MA-ACH M3) (Cavia porcellus, UniProt H0W1Z3); assay: Muscarine M3 functional assay, isolated organ (ileum), agonist and antagonist mode; set-up: species or system Guinea Pig; details: for EC50: read-out: Cell funct. Musc. M3 Agonism pEC50 (converted)
T5 construct: from tissue; host or cells: guinea pig ileum
T5 sequence (H0W1Z3 1-590): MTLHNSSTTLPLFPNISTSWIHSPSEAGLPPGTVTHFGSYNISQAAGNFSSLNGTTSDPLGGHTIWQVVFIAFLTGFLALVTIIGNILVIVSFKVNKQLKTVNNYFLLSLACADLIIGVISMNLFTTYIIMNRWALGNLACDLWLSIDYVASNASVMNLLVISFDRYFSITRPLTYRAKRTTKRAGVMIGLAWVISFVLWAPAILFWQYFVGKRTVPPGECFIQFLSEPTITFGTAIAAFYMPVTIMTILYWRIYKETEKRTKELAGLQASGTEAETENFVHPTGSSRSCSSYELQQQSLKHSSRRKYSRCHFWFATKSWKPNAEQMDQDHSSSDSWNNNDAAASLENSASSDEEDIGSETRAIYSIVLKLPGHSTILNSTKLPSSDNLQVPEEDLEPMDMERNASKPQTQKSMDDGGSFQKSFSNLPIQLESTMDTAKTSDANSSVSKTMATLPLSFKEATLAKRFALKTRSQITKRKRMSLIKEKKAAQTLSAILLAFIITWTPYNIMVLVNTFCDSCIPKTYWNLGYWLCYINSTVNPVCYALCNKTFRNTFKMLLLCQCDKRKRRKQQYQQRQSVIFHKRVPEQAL

[9] = target: T6, Muscarine M2 (GPCR-A-MA-ACH M2) (Homo sapiens, UniProt P08172); assay: Muscarine M2 receptor binding
T6 construct: expressed in transfected cells; host or cells: CHO cells
T6 sequence (P08172 1-466): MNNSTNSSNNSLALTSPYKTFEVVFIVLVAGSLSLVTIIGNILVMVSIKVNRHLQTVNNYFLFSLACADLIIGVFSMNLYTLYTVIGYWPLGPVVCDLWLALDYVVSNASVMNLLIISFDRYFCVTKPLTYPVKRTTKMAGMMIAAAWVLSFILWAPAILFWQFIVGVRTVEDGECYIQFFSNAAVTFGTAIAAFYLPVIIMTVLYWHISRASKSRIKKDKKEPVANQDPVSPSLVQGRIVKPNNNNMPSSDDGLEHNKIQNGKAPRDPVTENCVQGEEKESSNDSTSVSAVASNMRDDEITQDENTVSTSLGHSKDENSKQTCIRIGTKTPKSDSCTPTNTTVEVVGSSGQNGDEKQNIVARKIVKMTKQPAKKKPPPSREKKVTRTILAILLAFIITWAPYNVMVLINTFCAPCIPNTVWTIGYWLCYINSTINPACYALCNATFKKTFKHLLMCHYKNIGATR

[10] = Stability in human liver homogenate (metabolic stability in vitro); assay type: in vitro ADME; details: read-out: t ½
Source text: DÖRJE, F., WESS, J., LAMBRECHT, G., TACKE, R., […], E. and BRANN, M. R. (1991) Antagonist binding profiles of five cloned human muscarinic receptor subtypes. J. Pharmacol. Exp. Ther., 256: 727-733. • […], M. H. (1990) Rat hippocampal muscarinic autoreceptors are similar to the M2 (cardiac) subtype: comparison with hippocampal M1, atrial M2 and ileal M3 receptors. Brit. J. Pharmacol., 99: 753-761. • PERALTA, E. G., ASHKENAZI, A., WINSLOW, J. W., SMITH, D. H., […], J. and CAPON, D. J. (1987) Distinct primary structures, ligand-binding properties and tissue-specific expression of four human muscarinic acetylcholine receptors. EMBO. J., 6: 3923-3929. Determination of Metabolic Stability (In Vitro)
Method used according to procedures described by DI, L. et al., Journal of Biomolecular Screening, Vol. 8, No. 4, 453-462 (2003).

[11] = human M4, CHO cells, agonist mode, reference agonist oxotremorine, read-out: Cell funct. Musc. M4 Agonism pEC50 (converted)
[12] = human M4, CHO cells, receptor binding, ligand 6 nM, 30 min/25° C., read-out: RB Musc. M4 3H-Oxotremorine pKi (converted)
[13] = human M1, CHO cells, agonist mode, reference agonist acetylcholine

Ki [4] [nM] | Ki [5] [nM] | EC50 [2, 11] [nM] | Ki [3, 12] [nM] | EC50 [1, 13] [nM] | half-life [10] [min] | Ki ([6]; human M3, CHO cells, receptor binding) [nM] | Kb ([7]; read-out: Cell funct. Musc. M2 Antagonism pA2 (converted)) [nM] | Ki ([9]; human M2, CHO cells, receptor binding) [nM] | SMILES | EC50 [1] [nM] | EC50 [2] [nM] | Ki [3] [nM] | melting point [°C] | Ki [6] [nM] | Kb [7] [nM] | EC50 [7] [nM] | Kb [8] [nM] | EC50 [8] [nM] | Ki [9] [nM]
1580 | 398 | > 10000 | 251 |  |  |  |  |  | CSc1c[nH]nc1C1=CCCN(C)C1 [Compound 22A, 3-(4-Methylsulfanyl-1H-pyrazol-3-yl)-1,2,5,6-tetrahydro-1-methylpyridine] |  |  |  | 131.5 |  |  |  |  |  | 
501 | 126 | 501 | 398 | 79.4 | 52 |  |  |  | CN1CCC=C(c2n[nH]cc2SCCCC(F)(F)F)C1 [Compound 22B, 3-[4-(4,4,4-trifluoro-butylsulfanyl)-1H-pyrazol-3-yl]-1,2,5,6-tetrahydro-1-methylpyridine] |  |  |  |  |  |  |  |  |  | 
398 | 316 | > 10000 | 100 |  |  |  |  |  | CCCSc1c[nH]nc1C1=CCCN(C)C1 [Compound 22E, 3-(4-Propylsulfanyl-1H-pyrazol-3-yl)-1,2,5,6-tetrahydro-1-methylpyridine] |  |  |  | 111 |  |  |  |  |  | 
200 | 50.1 | 316 | 200 | 39.8 | 50 |  |  |  | CCCCCSc1c[nH]nc1C1=CCCN(C)C1 [Compound 22G, 3-(4-Pentylsulfanyl-1H-pyrazol-3-yl)-1,2,5,6-tetrahydro-1-methylpyridine] |  |  |  | 100 to 101 |  |  |  |  |  | 
316 | 39.8 | 126 | 63.1 | 200 |  |  |  |  | CCCCSc1c[nH]nc1C1=CCCN(C)C1 [Compound 22F, 3-(4-Butylsulfanyl-1H-pyrazol-3-yl)-1,2,5,6-tetrahydro-1-methylpyridine] |  |  |  | 120 to 121 |  |  |  |  |  | 
3980 | 501 | 1000 | 1000 | 79.4 |  | 2510 | > 1000 | 6310 | CCCCCCSc1nc[nH]c1C1=CCCN(C)C1 [Compound 76B, 3-(5-Hexylsulfanyl-3H-imidazol-4-yl)-1,2,5,6-tetrahydro-1-methylpyridine] |  |  |  |  |  |  | > 1000 | > 1000 | > 1000 | 
1580 | 398 | > 10000 | 316 |  |  |  |  |  | CCSc1c[nH]nc1C1=CCCN(C)C1 [Compound 22D, 3-(4-Ethylsulfanyl-1H-pyrazol-3-yl)-1,2,5,6-tetrahydro-1-methylpyridine] |  |  |  | 95 to 97 |  |  |  |  |  | 

SMILES | Ki [4] [nM] | Ki [5] [nM] | EC50 [2, 11] [nM] | Ki [3, 12] [nM] | EC50 [1, 13] [nM] | half-life [10] [min] | Ki ([6]; human M3, CHO cells, receptor binding) [nM] | Kb ([7]; read-out: Cell funct. Musc. M2 Antagonism pA2 (converted)) [nM] | Ki ([9]; human M2, CHO cells, receptor binding) [nM] | EC50 [1] [nM] | EC50 [2] [nM] | Ki [3] [nM] | melting point [°C] | Ki [6] [nM] | Kb [7] [nM] | EC50 [7] [nM] | Kb [8] [nM] | EC50 [8] [nM] | Ki [9] [nM]
CCCCSc1c[nH]nc1C1CN2CCC1CC2 (stereo not drawn) [Compound 49A, 3-(4-Butylsulfanyl-1H-pyrazol-3-yl)-1-azabicyclo[2.2.2]octane] | 126 | 15.8 |  |  |  |  |  |  |  | 10 | 39.8 | 25.1 | 162 to 164 |  |  |  |  |  | 
CSc1c[nH]nc1C1CN2CCC1CC2 (stereo not drawn) [Compound 49C, 3-(4-Methylsulfanyl-1H-pyrazol-3-yl)-1-azabicyclo[2.2.2]octane] | 1000 | 126 |  |  |  |  |  |  |  | 79.4 | 501 | 126 | 145 to 147 |  |  |  |  |  | 
CCCCCSc1c[nH]nc1C1CN2CCC1CC2 (stereo not drawn) [Compound 49B, 3-(4-Pentylsulfanyl-1H-pyrazol-3-yl)-1-azabicyclo[2.2.2]octane] | 158 | 25.1 |  |  |  |  |  |  |  | 10 | 6.31 | 7.94 | 142 to 145 | 63.1 | > 1000 | > 1000 | > 1000 | > 1000 | 631
CC(C)CCSc1c[nH]nc1C1CN2CCC1CC2 (stereo not drawn) [Compound 49H, 3-[4-(3-Methyl-butylsulfanyl)-1H-pyrazol-3-yl]-1-azabicyclo[2.2.2]octane] | 158 | 39.8 |  |  |  |  |  |  |  | 50.1 | > 10000 | 31.6 | 157 to 159 |  |  |  |  |  | 
CCCCCCSc1c[nH]nc1C1CN2CCC1CC2 (stereo not drawn) [Compound 49F, 3-(4-Hexylsulfanyl-1H-pyrazol-3-yl)-1-azabicyclo[2.2.2]octane] | 251 | 50.1 |  |  |  |  |  |  |  | 794 | 12.6 | 12.6 | 130 | 100 | > 1000 | > 1000 | > 1000 | > 1000 | 398
